Assays:
[1] = biological target: T1, cloned human δ receptor (HDELTA) (Homo sapiens, UniProt P41143); experiment: GTP[γ]35S binding functional assay, membranes from HEK-293S cells expressing cloned human opioid receptors; type: biochemical
T1 construct: expressed in transfected cells; host or cells: human 293S (HEK-293S) cells, geneticin-selected
Protocol: (§1) • A. Human 293S cells expressing cloned human μ, δ, and κ receptors and neomycin resistance were grown in suspension at 37° C. and 5% CO2 in shaker flasks containing calcium-free DMEM 10% FBS, 5% BCS, 0.1% Pluronic F-68, and 600 μg/ml geneticin. • B. Mouse and rat brains were weighed and rinsed in ice-cold PBS (containing 2.5 mM EDTA, pH 7.4). The brains were homogenized with a polytron for 15 sec (mouse) or 30 sec (rat) in ice-cold lysis buffer (50 mM Tris, pH 7.0, 2.5 mM EDTA, with phenylmethylsulfonyl fluoride added just prior use to […] from a 0.5M stock in DMSO:ethanol). Membrane Preparation
Cells were pelleted and resuspended in lysis buffer (50 mM Tris, pH 7.0, 2.5 mM EDTA, with PMSF added just prior to use to 0.1 mM from a 0.1 M stock in ethanol), incubated on ice for 15 min, then homogenized with a polytron for 30 sec. The suspension was spun at 1000 g (max) for 10 min at 4° C. The supernatant was saved on ice and the pellets resuspended and spun as before. The supernatants from both spins were combined and spun at 46,000 g (max) for 30 min. The pellets were resuspended in cold Tris buffer (50 mM Tris/Cl, pH 7.0) and spun again. The final pellets were resuspended in membrane buffer (50 mM Tris, 0.32 M sucrose, pH 7.0). Aliquots (1 ml) in polypropylene tubes were frozen in dry ice/ethanol and stored at −70° C. until use. The protein concentrations were determined by a modified Lowry assay with sodium dodecyl sulfate.
(§2) The agonist activity of the compounds is measured by determining the degree to which the compounds receptor complex activates the binding of GTP to G-proteins to which the receptors are coupled. In the GTP binding assay, GTP[γ]^35S is combined with test compounds and membranes from HEK-293S cells expressing the cloned human opioid receptors or from homogenised rat and mouse brain. Agonists stimulate GTP[γ]^35S binding in these membranes. The EC50 and Emax values of compounds are determined from dose-response curves. Right shifts of the dose response curve by the delta antagonist naltrindole are performed to verify that agonist activity is mediated through delta receptors.

[2] = biological target: T2, delta receptors, rat brain membranes (Rattus norvegicus, UniProt P33533); experiment: GTP[γ]35S binding functional assay, homogenised rat brain; type: biochemical
T2 construct: from tissue; host or cells: rat brain homogenate
Protocol: as §1, §2

[3] = biological target: T3, delta receptors, mouse brain membranes (Mus musculus, UniProt P32300); experiment: GTP[γ]35S binding functional assay, homogenised mouse brain; type: biochemical
T3 construct: from tissue; host or cells: mouse brain homogenate
Protocol: as §1, §2

[4] = biological target: T1, cloned human δ receptor (HDELTA); experiment: Binding assay, displacement of radioligand on membranes of 293S cells expressing cloned human δ receptor; conditions: 293S cell membranes

T1 sequence (P41143 whole entry): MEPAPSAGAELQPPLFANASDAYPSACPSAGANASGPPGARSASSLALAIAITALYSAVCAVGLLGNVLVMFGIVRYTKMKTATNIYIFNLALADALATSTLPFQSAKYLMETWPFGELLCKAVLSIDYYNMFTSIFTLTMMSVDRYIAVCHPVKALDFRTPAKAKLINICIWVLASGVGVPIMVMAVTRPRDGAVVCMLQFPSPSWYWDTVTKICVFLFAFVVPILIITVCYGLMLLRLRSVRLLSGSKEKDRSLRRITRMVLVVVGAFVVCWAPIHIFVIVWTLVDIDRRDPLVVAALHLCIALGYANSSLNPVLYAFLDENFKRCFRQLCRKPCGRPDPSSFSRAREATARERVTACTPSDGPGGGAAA
T3 sequence (P32300 whole entry): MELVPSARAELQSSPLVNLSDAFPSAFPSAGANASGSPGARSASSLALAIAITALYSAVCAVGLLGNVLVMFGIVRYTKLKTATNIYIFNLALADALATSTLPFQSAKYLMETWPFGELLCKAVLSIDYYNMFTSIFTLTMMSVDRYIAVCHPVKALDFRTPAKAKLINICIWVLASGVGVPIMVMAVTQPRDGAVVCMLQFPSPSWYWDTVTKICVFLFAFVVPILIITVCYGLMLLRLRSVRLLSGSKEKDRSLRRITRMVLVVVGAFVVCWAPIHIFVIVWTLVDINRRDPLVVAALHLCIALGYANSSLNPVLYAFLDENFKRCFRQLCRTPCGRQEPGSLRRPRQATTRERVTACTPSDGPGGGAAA
T2 sequence (P33533 whole entry): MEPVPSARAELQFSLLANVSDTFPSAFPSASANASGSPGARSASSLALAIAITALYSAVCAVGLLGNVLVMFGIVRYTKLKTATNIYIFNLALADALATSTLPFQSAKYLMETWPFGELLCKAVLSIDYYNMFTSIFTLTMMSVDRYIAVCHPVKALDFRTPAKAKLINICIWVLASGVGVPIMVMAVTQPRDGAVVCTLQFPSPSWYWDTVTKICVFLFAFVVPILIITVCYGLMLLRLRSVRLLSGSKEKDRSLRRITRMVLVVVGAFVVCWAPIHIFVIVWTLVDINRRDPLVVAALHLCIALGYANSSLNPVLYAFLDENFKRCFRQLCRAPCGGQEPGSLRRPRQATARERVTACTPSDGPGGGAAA

Compound `CCN(CC)C(=O)c1ccc(C(=C2CCN(Cc3ccccc3)CC2)c2cccc(C(N)=O)c2)cc1` [3b, N,N-Diethyl-4-[1-benzylpiperidin-4-ylidene(3-carbamoylphenyl)-methyl]-benzamide] has an EC50 [1] of 0.091 nM, an Emax [1] of 93.8% and an EC50 [2] of 0.403 nM. The Emax [2] was 179%, the EC50 [3] was 0.539 nM and the Emax [3] was 165%. The IC50 [4] was 0.548 nM.
`CCN(CC)C(=O)c1ccc(C(=C2CCN(Cc3ccco3)CC2)c2cccc(C(N)=O)c2)cc1` [5b] showed an EC50 [2] of 0.633 nM, an Emax [2] of 149% and an IC50 [4] of 0.282 nM.
Work on `CCN(CC)C(=O)c1ccc(C(=C2CCN(Cc3ccoc3)CC2)c2cccc(C(N)=O)c2)cc1` [5c] yielded an EC50 [2] of 0.367 nM, an Emax [2] of 170% and an IC50 [4] of 0.246 nM.
Compound `CCN(CC)C(=O)c1ccc(C(=C2CCN(Cc3cccs3)CC2)c2cccc(C(N)=O)c2)cc1` [5a] has an EC50 [1] of 0.158 nM, an Emax [1] of 98.1% and an EC50 [2] of 0.613 nM. For the same compound, the Emax [2] was 181%, the EC50 [3] was 0.818 nM and the Emax [3] was 170%. The IC50 [4] was 0.373 nM.
For `CCN(CC)C(=O)c1ccc(C(=C2CCN(Cc3ccccn3)CC2)c2cccc(C(N)=O)c2)cc1` [5d, N,N-Diethyl-4-[1-(2-pyridine)methyl-piperidin-4-ylidene-(3-carbamoylphenyl)-methyl]-benzamide], the EC50 [2] was 0.396 nM, the Emax [2] was 180% and the IC50 [4] was 0.278 nM.
`CCN(CC)C(=O)c1ccc(C(=C2CCN(Cc3ccsc3)CC2)c2cccc(C(N)=O)c2)cc1` [5e, N,N-Diethyl-4-[1-(3-thiophene)methyl-piperidin-4-ylidene-(3-carbamoylphenyl)-methyl]-benzamide] was tested, and the IC50 [4] was 0.235 nM.
